Legend:
[1] = tested on: C57Bl/6 mice; assay: Luciferase mRNA delivery in mice, IVIS chemiluminescence; type: in vivo
Description: The animal experiments were reviewed and approved by the Ethics Committee of Zhejiang Medical College and the Ethics Committee of Zhejiang University of Technology. 6- to 8-week-old male C57Bl/6 mice were randomly grouped with 3 mice in each group. The mice in each group received a lipid nanoparticle coating mRNA expressing a luciferase via tail vein injection at a dose of 0.25 mg/kg mouse body weight (calculated by the mass of coated mRNA). […] The mRNA delivery effect of the lipid nanoparticle is quantitatively compared through a total chemiluminiscence quantity (Total Flux p/s) of a mouse whole body within unit time (shown in Table 5).
Table 13 and Table 14 show whole body chemiluminescent signals when LNPs (formulation 2) composed of the lipids in some examples deliver Flue mRNA in mice. The delivery dose of Flue mRNA was 0.25 mg/kg. 6 h after LNP injection, 150 mg/kg of D-luciferin was intraperitoneally injected into the mice, and then the whole body chemiluminescent signals were collected in the IVIS imaging system after 10 min. […]

[2] = Particle size detection of LNP (Brookhaven NanoBrook Omni, DLS); type: physicochemical; settings: LNPs after coating mRNA (luciferase)
Description: Step 1. Preparation of a lipid solution and a nucleic acid solution: unless otherwise specified, all aqueous solutions involved in examples were prepared from deionized water without nucleases. An ionizable lipid, a phospholipid (disaturated phosphatidylcholine (DSPC) or dioleoylphosphatidylethanolamine (DOPE)), cholesterol and a PEG lipid (DMG-PEG2000) were mixed in a molar ratio of 50/10/38.5/1.5 (containing DSPC, formulation 1) or 36.5/16/46.5/2.5 (containing DOPE, formulation 2) and dissolved into an ethanol solution. Meanwhile, a nucleic acid (a mass ratio of ionizable lipid/nucleic acid was 10/1) was dissolved into a citrate buffer solution of pH=3, so that a final volume ratio of the ethanol solution to the citrate solution was 1/3.
Step 2. Preparation of LNP by mixing the lipid solution with the nucleic acid solution: the lipid ethanol solution and the nucleic acid aqueous solution that were prepared in Step 1 were respectively put into a sterile syringe and placed in a Precision Nanosystem Ignite instrument, the extrusion flow speeds of the ethanol solution and the water phase solution were respectively set as 3 ml/min and 9 ml/min in instrument program settings. A microfluidic chip was inserted into the instrument and LNP preparation was initiated, and then a solution mixed by the chip was collected.
Step 2.1. Preparation of an LNP solution coating nucleic acid in a porous plate: a solution of an ionizable lipid, a phospholipid (DSPC or DOPE), cholesterol and a PEG lipid (DMG-PEG2000) in ethanol was added into each well of a 96-well deep plate, so that a molar ratio of four component lipids in each well was 50/10/38.5/1.5 (containing DSPC, formulation 1) or 36.5/16/46.5/2.5 (containing DOPE, formulation 2). Then, a citrate buffer solution (pH=3, the mass of nucleic acid added into each well was 1/10 that of the ionizable lipid in this well) that was three times as ethanol in volume and dissolved with a nucleic acid molecule was quickly added into the well plate through a multi-channel pipette or an automatic liquid dispensing system and rapidly mixed, so as to obtain the LNP solution coating nucleic acid.
Step 3. Purification of the LNP solution: the LNP solution collected in Step 2 or Step 2.1 was subjected to dialysis-concentration-filtration operations, so as to obtain a final LNP solution coating nucleic acid for subsequent testing.
The LNP solution coating nucleic acid obtained in Step 3 was diluted so that the final lipid concentration was between 0.01 mg/ml and 0.1 mg/ml. The diluted solution was added into a sample reservoir, and then subjected to particle size detection in a Brookhaven NanoBrook Omni instrument.

[3] = LNP formulation 2 (SM102: formulation 1), luciferase mRNA 0.25 mg/kg, tail vein, C57Bl/6 mice, whole body signal 6 h after LNP, 10 min after D-luciferin 150 mg/kg i.p.
[4] = LNPs (formulation 2), Flue mRNA 0.25 mg/kg, tail vein injection, whole body signal 6 h after LNP injection, 10 min after 150 mg/kg D-luciferin i.p.

Row | Structure (SMILES) | Chemiluminescent signal (p/s) [1, 3] [p/s] | PDI [2] | Particle size [2] [nm·days] | Chemiluminescent signal (p/s) [1, 4] [p/s]
1 | CCCCCCCCC(CCCCCCCC)OC(=O)CCCCCCCNC(=O)C(N(CCCN(C)C)C(=O)CCCCCCC/C=C\C[C@H](O)CCCCCC)C(C)(C)C (stereo partly shown) [Lipid 176] | 9.19E+08 |  |  | 
2 | CCCCC/C=C\C/C=C\CCCCCCCC(=O)N(CCCN(C)C)C(C(=O)NCCCC(=O)OCCCCCCCC/C=C\CCCCCCCC)C(CC)CC (stereo not shown) [Lipid 108] | 4.23E+09 |  |  | 
3 | CCCCCCCC/C=C\CCCCCCCCNC(=O)C(C1CCCCC1)N(CCN1CCN(C)CC1)C(=O)CCCCCCCCCCC (stereo not shown) [Lipid 60] | 4.10E+07 |  |  | 
4 | CCCCCCCC/C=C\CCCCCCCCNC(=O)C(N(CCCN(C)C)C(=O)NCCCCCCCCCCCC)C(C)(C)C (stereo not shown) [Lipid 326] |  | 0.18 | 111.42 ± 4.09 | 
5 | CCCCCCCCC(CCCCCC)COC(=O)CCCCCCC(=O)N(CCCN(C)C)C(C(=O)NCCCCCCOC(=O)C(CCCCCC)CCCCCCCC)C(C)(C)C (stereo not shown) [Lipid 436] |  | 0.18 | 92.2 ± 0.47 | 
6 | CCCCCCCCC(=O)OCCCNC(=O)C(N(CCCN(C)C)C(=O)CCCCCCC/C=C\C[C@H](O)CCCCCC)C(C)(C)C (stereo partly shown) [Lipid 166] | 2.98E+09 |  |  | 
7 | CCCCC/C=C\C/C=C\CCCCCCCC(=O)N(CCCN(C)C)C(C(=O)NCCCCCCCC(=O)OC(CCCCCCCC)CCCCCCCC)C1CC1 (stereo not shown) [Lipid 936] |  | 0.19 | 160.5 ± 2.71 | 
8 | CCCCCCCCCCCCCC(=O)N(CCCN(C)C)C(C)C(=O)NCCCCCCOC(=O)C(CCCCCC)CCCCCCCC (stereo not shown) [Lipid 1039] |  |  |  | 3.31E+06
9 | CCCCCCCCCCCCCCNC(=O)C(N(CCCN(CC)CC)C(=O)CCCCCCCCCCCCC)C(C)(C)C (stereo not shown) [Lipid 159] | 2.30E+09 | 0.22 | 136.93 ± 2.95 | 
10 | CCCCCCCCCCCCCC(=O)N(CCCN(CC)CC)C(C(=O)NCCCCCCCC(=O)OC(CCCCCCCC)CCCCCCCC)C(C)(C)C (stereo not shown) [Lipid 179] | 2.60E+09 |  |  | 
11 | CCCCCCCCC(CCCCCC)C(=O)OCCCCCCNC(=O)C(N(CCCN(CC)CC)C(=O)CCCCCCC/C=C\C[C@H](O)CCCCCC)C(C)(C)C (stereo partly shown) [Lipid 294] |  | 0.26 | 150.04 ± 0.93 | 
12 | CCCCCCCC/C=C\CCCCCCCCNC(=O)C(N(CCCN(CC)CC)C(=O)CCCCCCCCCCC)C(C)(C)C (stereo not shown) [Lipid 30] | 1.35E+08 |  |  | 
13 | CCCCC/C=C\C/C=C\CCCCCCCC(=O)N(CCCN(C)C)C(C(=O)NCCCCCCOC(=O)C(CCCCCC)CCCCCCCC)C(C)(C)C (stereo not shown) [Lipid 285] | 2.91E+10 |  |  | 
14 | CCCCCCCCCCCCCC(=O)N(CCCN(C)C)C(C(=S)NCCCCCCCC(=O)OC(CCCCCCCC)CCCCCCCC)C(C)(C)C (stereo not shown) [Lipid 317] |  | 0.23 | 162.23 ± 0.89 | 
15 | CC/C=C\C/C=C\C/C=C\C/C=C\C/C=C\CCCC(=O)N(CCCN(C)C)C(C(=O)NCCCCCCOC(=O)C(CCCCCC)CCCCCCCC)C(C)(C)C (stereo not shown) [Lipid 287] | 1.23E+10 |  |  | 
16 | CCCCCCCC/C=C\CCCCCCCCNC(=O)C(N(CCCN(C)C)C(=O)OCCCCCCCCCCCC)C(C)(C)C (stereo not shown) [Lipid 327] |  | 0.17 | 104.99 ± 1.21 | 
17 | CCCCCCCCC(CCCCCCCC)OC(=O)CCCCCCCNC(=O)C(N(CCCN(C)C)C(=O)CCCCCCCCCC(=O)OC(CCCCCC)CCCCCC)C(C)(C)C (stereo not shown) [Lipid 408] |  | 0.18 | 101.7 ± 5.09 | 1.03E+11
18 | CCCCCCCCCCCCCCNC(=O)C(N(CCCN(CC)CC)C(=O)CCCCCCC/C=C\C[C@H](O)CCCCCC)C(C)(C)C (stereo partly shown) [Lipid 161] |  | 0.27 | 253.06 ± 4.58 | 
19 | CCCCCCCC/C=C\CCCCCCCCOC(=O)CCC(=O)N(CCCN(C)C)C(C(=O)NCCCC(=O)OCCCCCCCC)C(C)(C)C (stereo not shown) [Lipid 223] | 1.26E+10 | 0.19 | 190.71 ± 1.15 | 

Row | Structure (SMILES) | Chemiluminescent signal (p/s) [1, 3] [p/s] | PDI [2] | Particle size [2] [nm·days] | Chemiluminescent signal (p/s) [1, 4] [p/s]
20 | CCCCCCCCC(CCCCCC)C(=O)OCCCCCCC(=O)N(CCCN(C)C)C(C(=O)NCCCCCCCC(=O)OCC(C)CCCCCCC)C(C)(C)C (stereo not shown) [Lipid 445] |  | 0.24 | 94.7 ± 0.95 | 2.15E+09
21 | CCCCCCCCCCCCNC(=O)C(N(CCCN(C)CCO)C(=O)CCCCCCCCCCC)C(C)(C)C (stereo not shown) [Lipid 188] | 1.92E+10 |  |  | 
22 | CCCCCCCCC(CC)OC(=O)CCCCCCCNC(=O)C(N(CCCN(C)C)C(=O)CCCCCCC(=O)OC(CC)CCCCCCCC)C(C)(C)C (stereo not shown) [Lipid 401] |  | 0.19 | 93.6 ± 0.84 | 5.92E+10
23 | CC/C=C\C/C=C\C/C=C\C/C=C\C/C=C\CCCC(=O)N(CCCN(CC)CC)C(C(=O)NCCCCCCCCCCCCCC)C(C)(C)C (stereo not shown) [Lipid 162] | 6.66E+09 | 0.27 | 261.64 ± 5.92 | 
24 | CCCCCCCCC(CCCCCC)C(=O)OCCCCCCNC(=O)C(N(CCCN(C)C)C(=O)CCCCCCC/C=C\C[C@H](O)CCCCCC)C(C)(C)C (stereo partly shown) [Lipid 286] | 4.78E+10 |  |  | 
25 | CCCCCCCCC(CC)OC(=O)CCCCCCC(=O)N(CCCN(C)C)C(C(=O)NCCCCCCCC(=O)OC(CCCCCCCC)CCCCCCCC)C(C)(C)C (stereo not shown) [Lipid 402] |  | 0.25 | 84.3 ± 3.42 | 4.20E+10
26 | CCCCC/C=C\C/C=C\CCCCCCCC(=O)N(CCCN(CC)CC)C(C(=O)NCCCOC(=O)CCCCCCCC)C(C)(C)C (stereo not shown) [Lipid 170] | 5.52E+08 |  |  | 
27 | CCCCCCCCCCCC(=O)N(CCCN(C)CCCCO)C(C(=O)NCCCCCCCC(=O)OC(CCCCCCCC)CCCCCCCC)C(C)(C)C (stereo not shown) [Lipid 240] | 5.76E+08 | 0.19 | 204.35 ± 3.72 | 
28 | CCCCCCCCCCCCCCNC(=O)C(N(CCN(C)CCO)C(=O)CCCCCCCCCCCCC)C(C)(C)C (stereo not shown) [Lipid 194] | 3.84E+09 |  |  | 
29 | CCCCCCCCC(CCCCCCCC)OC(=O)CCCCCCCNC(=O)C(N(CCCN(CC)CC)C(=O)CCCCCCC/C=C\C[C@H](O)CCCCCC)C(C)(C)C (stereo partly shown) [Lipid 181] | 3.86E+09 |  |  | 
30 | CCCCC/C=C\C/C=C\CCCCCCCC(=O)N(CCCN(C)C)C(CC)C(=O)NCCCCCCCC(=O)OC(CCCCCCCC)CCCCCCCC (stereo not shown) [Lipid 950] |  |  |  | 3.41E+07
31 | CCCCCCCCCCCC(=O)N(CCCN(CC)CC)C(C(=O)NCCCCCCCC(=O)OC(CCCCCCCC)CCCCCCCC)C(C)(C)C (stereo not shown) [Lipid 178] | 9.50E+08 |  |  | 
32 | CC/C=C\C/C=C\C/C=C\C/C=C\C/C=C\CCCC(=O)N(CCCN(CC)CC)C(C(=O)NCCCCCCOC(=O)C(CCCCCC)CCCCCCCC)C(C)(C)C (stereo not shown) [Lipid 295] |  | 0.16 | 162.45 ± 2.28 | 
33 | CCCCC/C=C\C/C=C\CCCCCCCC(=O)N(CCCN(C)C)C(C(=O)NCCCCCCCC(=O)OC(CCCCCCCC)CCCCCCCC)C1CCC1 (stereo not shown) [Lipid 937] |  |  |  | 1.01E+08
34 | CCCCCCCC/C=C\CCCCCCCC(=O)OCCCNC(=O)C(C(CC)CC)N(CCCN(CC)CC)C(=O)CCCCCCCCCCC (stereo not shown) [Lipid 113] | 3.39E+08 |  |  | 
35 | CCCCCCCCCCCC(=O)N(CCCN(C)C)C(C(=O)NCCCCCCCC(=O)OC(CCCCCCCC)CCCCCCCC)C(C)(C)C (stereo not shown) [Lipid 173] | 5.48E+08 |  |  | 
36 | CCCCCCCCCCCCCC(=O)N(CCCN(C)C)C(CC)C(=O)NCCCCCCOC(=O)C(CCCCCC)CCCCCCCC (stereo not shown) [Lipid 1041] |  |  |  | 3.31E+06
37 | CCCCCCCCCCCCCCNC(=O)C(N(CCCN(CC)CC)C(=O)CCCCCCCCCCC)C(C)(C)C (stereo not shown) [Lipid 158] | 3.83E+08 |  |  | 

Source: patent EP4644377A1, “LIPID COMPOUND FOR GENE DELIVERY AND LIPID NANOPARTICLE COMPRISING SAME” (NANJING CYBERNAX BIOMEDICAL TECHNOLOGY CO., LTD., priority 2022, dated 2024)
